PMC4195943, “A novel small-molecule MRCK inhibitor blocks cancer cell invasion” (Cell Communication and Signaling : CCS, 2014)

Tests used:
SCC12 cells = assay: Organotypic collagen invasion of SCC12 cells; format: cell-based, human; details: 2 μM, ten days
Procedure: All results are shown as mean ± standard error of n = 3 independent replicates. […] Readings were compared to the Alamar Blue metabolism in DMSO treated cells that were used as the viability standard of 100% for each replicate experiment. […] (F) Number of invading cells was determined in 5 random fields for each condition for each separate replicate experiment. All results are shown as mean ± standard error of n ≥ 3 independent replicates.
SCC12 invasion assays were performed essentially as described in [12]. HN-CAF cells were grown for 5 days in a Matrigel-collagen gel, covered with DMEM + 10%FBS medium, and allowed to remodel the matrix. The gel consisted of: 280 μL of DMEM + 10% FBS, 100 μL FBS, 20 μL 1 M Hepes pH 7.5 and approximately 200 μL of Matrigel (BD Biosciences, 354234), 400 μL of collagen type 1 (BD Biosciences, 354249) and 5×10^5 HN-CAF cells. Puromycin was subsequently added to the medium at 10 μg/ml for 3 days to remove HN-CAF cells. The gels were washed in SCC medium 3 times for 2 hours and SCC12 cells were plated on the surface of the gel and left to adhere overnight. […] The gels were fixed overnight in 4% PFA and 1% glutaraldehyde in PBS, washed in PBS and processed for histology.

MRCKβ = target: T1, MRCKβ (Homo sapiens, UniProt Q9Y5S2); assay: MLC phosphorylation in MDA-MB-231 cells expressing doxycycline-induced MRCKβ kinase domain (quantitative western blot); format: cell-based
T1 construct: The kinase domains of MRCKβ (1–473), ROCK1 (1–535) or ROCK2 (1–532) were gene synthesized; expressed in transfected cells; host or cells: MDA-MB-231 D3H2LN-Luc Tet3G cells, pTRE3G-MRCKβ (1–473)
T1 sequence (Q9Y5S2 1-473): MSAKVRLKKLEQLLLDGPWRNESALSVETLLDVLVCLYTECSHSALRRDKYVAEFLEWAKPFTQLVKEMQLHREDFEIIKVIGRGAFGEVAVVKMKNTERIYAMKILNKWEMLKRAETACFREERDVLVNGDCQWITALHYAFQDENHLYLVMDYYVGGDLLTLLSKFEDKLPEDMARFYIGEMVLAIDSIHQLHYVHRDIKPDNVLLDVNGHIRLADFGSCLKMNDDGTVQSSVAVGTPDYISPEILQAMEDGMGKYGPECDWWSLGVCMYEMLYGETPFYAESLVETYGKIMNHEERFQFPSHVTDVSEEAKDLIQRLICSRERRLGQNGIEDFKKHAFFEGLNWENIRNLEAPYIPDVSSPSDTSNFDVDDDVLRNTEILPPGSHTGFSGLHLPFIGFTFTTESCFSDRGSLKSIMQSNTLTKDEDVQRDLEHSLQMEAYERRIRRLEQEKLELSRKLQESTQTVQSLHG
Procedure: (A) MDA-MB-231 breast cancer cells expressing doxycycline inducible ROCK1, ROCK2 or MRCKβ kinase domains were established as indicated. Following treatment with doxycycline for 18 hours to induce expression, cell lysates were western blotted with antibodies as indicated.
MDA-MB-231 D3H2LN-Luc cells (Caliper LifeScience) were grown in MEM/EBSS (Hyclone) supplemented with 10% fetal bovine serum (FBS) (Gibco), 1 mM Sodium Pyruvate (Sigma) 2 mM L-glutamine (Gibco), 1× MEM non-essential amino acids (Gibco) plus penicillin-streptomycin (10 Units/ml and 10 μg/ml respectively) at 37°C in 5% CO2 in a humidified incubator. MDA-MB-231 D3H2LN-Luc TetOn MRCKβ, ROCK1 and ROCK2 selective cell lines were grown in the same media with 10% FBS replaced with 10% Tet System Approved FBS (Clontech).
The kinase domains of MRCKβ (1–473), ROCK1 (1–535) or ROCK2 (1–532) were gene synthesized (Genscript) and subcloned into pTRE3G (Clontech). MDA-MB-231 D3H2LN-Luc Tet3G cells were co-transfected with pTRE3G-MRCKβ (1–473), pTRE3G-ROCK1 (1–535) or pTRE3G-ROCK2 (1–532), together with a linear Pur^r-selection marker using Xfect transfection reagent according to manufacturer’s instructions. […] Each clone was treated with or without doxycycline (1 μg/ml) for 24 hours and kinase domain expression and activity determined by western blotting. […]

MDA-MB-231 cells = assay: Matrigel invasion (scratch wound closure, Incucyte) of MDA-MB-231 cells; format: cell-based, human
Procedure: (A) MDA-MB-231 human breast cancer cells were plated in 96 well plates, then 24 hours later a ~800 μm scratch wound was created. […] All results are shown as mean ± standard error of n ≥ 4 independent replicates. […] Readings were compared to the Alamar Blue metabolism in DMSO treated cells that were used as the viability standard of 100% for each replicate experiment. All results are shown as mean ± standard error of 3 independent replicates.
MDA-MB-231 cells were plated at 30,000 cells per well in Image Lock 96 well plates (Essen BioScience) in 100 μL complete DMEM medium and after allowing cells to settle for 20 min were incubated overnight at 37°C in 5% CO2 in a humidified incubator. Matrigel (BD Biosciences) was thawed overnight at 4°C, diluted 1:1 with PBS and 100 μL pipetted over cells that had been scratched with the WoundMaker tool (Essen BioScience). Plates were incubated for 1 h, then appropriately diluted drugs added in 100 μL media to achieve final concentrations. Plates were scanned with an Incucyte Zoom (Essen BioSciences) according to manufacturer’s instructions at 3 hour intervals. Cell viability was determined with AlamarBlue (Invitrogen, DAL 1025), which was added to the medium and cells cultured for 6 hours. Absorbances at 570 nm and at 600 nm were measured to assess metabolic activity.

| inhibition of MLC phosphorylation induced by MRCKβ (MRCKβ; 3 μM) | EC50 (MDA-MB-231 cells; Homo sapiens, MDA-MB-231, 24 h, read-out: EC50, inhibition of Matrigel invasion (wound closure)) | inhibition of MRCKβ activity (MLC phosphorylation) (MRCKβ; highest 30 μM concentration) | SMILES | SCC12 invasion into three dimensional collagen matrix (SCC12 cells) | inhibition of MDA-MB-231 invasion (MDA-MB-231 cells; 10 μM) | inhibition at 1 µM (MDA-MB-231 cells; Homo sapiens, MDA-MB-231, 1 μM) | inhibition of wound closure (MDA-MB-231 cells; 10 μM) | inhibition of invasion (MDA-MB-231 cells; 30 μM, 24 h) |
| --- | --- | --- | --- | --- | --- | --- | --- | --- |
| completely inhibited | 440 nM |  | O=C(Nc1cn[nH]c1-c1ccccn1)c1nn(C2CCNCC2)cc1Cl [BDP5290, 4-chloro-1-(4-piperidyl)-N-[5-(2-pyridyl)-1H-pyrazol-4-yl]pyrazole-3-carboxamide] | profound effect | virtually complete inhibition | > 60% |  |  |
|  |  | ≤ 50% | C[C@@H](N)[C@H]1CC[C@H](C(=O)Nc2ccncc2)CC1 [Y27632, reference compound] | did not significantly affect |  |  | ~ 40% | ≤ 50% |
